# Reference: patent US6667346B2, “Method for protecting cells and tissues from ionizing radiation toxicity with α, β unsaturated aryl sulfones” (Temple University - Of The Commonwealth System of Higher …, priority 2001, dated 2003)
# Legend:
# HFL-1 cells = experiment: Radioprotective effects on cultured normal cells (colony formation after irradiation); format: cell-based, human; details: HFL-1 normal diploid lung fibroblasts; 2.5 to 20 micromolar for 24 hrs before 10 Gy or 15 Gy IR; colonies counted after 3 weeks
# Experimental: HFL-1 cells, which are normal diploid lung fibroblasts, were plated into 24 well dishes at a cell density of 3000 cells per 10 mm^2 in DMEM completed with 10% fetal bovine serum and antibiotics. The test compounds listed in Table 16 were added to the cells 24 hours later in select concentrations from 2.5 to 20 micromolar, inclusive, using DMSO as a solvent. Control cells were treated with DMSO alone. The cells were exposed to the test compound or DMSO for 24 hrs. The cells were then irradiated with either 10 Gy (gray) or 15 Gy of ionizing radiation (IR) using a J. L. Shepherd Mark I, Model 30-1 Irradiator equipped with ^137cesium as a source.
# After irradiation, the medium on the test and control cells was removed and replaced with fresh growth medium without the test compounds or DMSO. The irradiated cells were incubated for 96 hours and duplicate wells were trypsinized and replated onto 100 mm^2 tissue culture dishes. The replated cells were grown under normal conditions with one change of fresh medium for 3 weeks. The number of colonies from each 100 mm^2 culture dish, which represents the number of surviving cells, was determined by staining the dishes as described below.
# To visualize and count the colonies derived from the clonal outgrowth of individual radioprotected cells, the medium was removed and the plates were washed one time with room temperature phosphate buffered saline. The cells were stained with a 1:10 diluted Modified Giemsa staining solution (Sigma) for 20 minutes. The stain was removed, and the plates were washed with tap water. The plates were air dried, the number of colonies from each plate were counted and the average from duplicate plates was determined.
# A “+” indicates radioprotective activity of between 2- and 4.5-fold at the concentrations tested. Fold protection was determined by dividing the average number of colonies from the test plates by the average number of colonies on the control plates.
# DU145 cells = experiment: Tumor cell killing by ionizing radiation, compound added after IR treatment; format: cell-based; details: for Interference with killing of tumor cells by ionizing radiation: continuous exposure, added immediately following 10 Gy IR
# Experimental: DU145 cells were plated in 6 well dishes at a cell density of 1.0×10^5 cells per 35 mm^2 in DMEM completed with 10% fetal bovine serum and antibiotics. The plates were incubated overnight and the cells were irradiated with 10 Gy of ionizing irradiation. Compound 1 (1.0 uM and 2.0 uM) or Compound 13 (10.0 uM and 20.0 uM) in DMSO was added to the cells immediately following the IR treatment.
# C57 black mice = experiment: Protection of mice from radiation toxicity by pre-treatment (mortality after 8 Gy); format: in vivo
# Experimental: C57 black mice age 10-12 weeks (Taconic) were divided into two treatment groups of 10 mice each. One group, designated the “200×2” group, received intraperitoneal injections of 200 micrograms (E)-4-carboxystyryl-4-chlorobenzylsulfone dissolved in DMSO (a 10 mg/Kg dose, based on 20 g mice) 18 and 6 hours before irradiation with 8 Gy gamma radiation. The other group, designated “500×2,” received intraperitoneal injections of 500 micrograms (E)-4-carboxystyryl-4-chlorobenzylsulfone dissolved in DMSO (a 25 mg/Kg dose, based on 20 g mice) 18 and 6 hours before irradiation with 8 Gy gamma radiation. A control group of 16 animals received 8 Gy gamma radiation alone.
# C57 B6/J mice = experiment: Radioprotective effect in mice when given after radiation exposure (mortality after 8 Gy); format: in vivo
# Experimental: One group, designated the “200×2” group, received intraperitoneal injections of 200 micrograms (E)-4-carboxystyryl-4-chlorobenzylsulfone dissolved in DMSO (a 10 mg/Kg dose, assuming 20 g mice) 18 and 6 hours before irradiation with 8 Gy gamma radiation. The other group, designated “200 Post,” received an intraperitoneal injection of 200 micrograms (E)-4-carboxystyryl-4-chlorobenzylsulfone dissolved in DMSO (a 10 mg/Kg dose, based on 20 g mice) 15 minutes after irradiation with 8 Gy gamma radiation. A control group of 16 animals received 8 Gy gamma radiation alone.
# [1] = "200×2" group: 10 mg/Kg i.p. 18 and 6 hours before 8 Gy gamma radiation
# [2] = "500×2" group: 25 mg/Kg i.p. 18 and 6 hours before 8 Gy gamma radiation
molecule,measurement,setting,value
"O=S(=O)(/C=C/c1ccc(F)cc1)Cc1ccc(Cl)cc1 [Compound 1, (E)-4-Fluorostyryl-4-chlorobenzylsulfone]","Activity (radioprotective activity, fold protection: colonies test/control)",HFL-1 cells,+ (radioprotective activity of between 2- and 4.5-fold at the concentrations tested)
same,Additive tumor cell killing effect,DU145 cells; 2.0 uM added immediately following 10 Gy IR,additive tumor cell killing effect
same,Interference with killing of tumor cells by ionizing radiation,DU145 cells,did not interfere with the killing of tumor cells by ionizing radiation
"O=S(=O)(/C=C\c1ccc(F)cc1)Cc1ccc(Cl)cc1 [Compound 7, (Z)-4-Fluorostyryl-4-chlorobenzylsulfone]","Activity (radioprotective activity, fold protection: colonies test/control)",HFL-1 cells,+ (radioprotective activity of between 2- and 4.5-fold at the concentrations tested)
"O=S(=O)(/C=C/c1ccoc1)Cc1ccc(Cl)cc1Cl [Compound 8, (E)-3-Furanethenyl-2,4-dichlorobenzylsulfone]","Activity (radioprotective activity, fold protection: colonies test/control)",HFL-1 cells,+ (radioprotective activity of between 2- and 4.5-fold at the concentrations tested)
"O=C(O)c1ccc(/C=C/S(=O)(=O)Cc2ccc(Cl)cc2)cc1 [Compound 13, (E)-4-Carboxystyryl-4-chlorobenzylsulfone]","Activity (radioprotective activity, fold protection: colonies test/control)",HFL-1 cells,+ (radioprotective activity of between 2- and 4.5-fold at the concentrations tested)
same,Maximum mortality rate by day 40,C57 black mice; [1],approximately 60%
same,Mice dead at day 20 post-irradiation,C57 black mice; [1],about 50%
same,Maximum mortality rate by day 40,C57 black mice; [2],about 50%
same,Mice dead at day 20 post-irradiation,C57 black mice; [2],about 30%
same,Radiation toxicity in mice,C57 black mice; pretreatment 18 and 6 hours before 8 Gy gamma radiation,significantly reduced
same,Additive tumor cell killing effect,DU145 cells; 20 uM added immediately following 10 Gy IR,additive tumor cell killing effect
same,Interference with killing of tumor cells by ionizing radiation,DU145 cells,did not interfere with the killing of tumor cells by ionizing radiation
same,Radioprotection by post-irradiation treatment versus pre-irradiation treatment,"C57 B6/J mice; ""200 Post"" vs ""200×2"" group, 8 Gy gamma radiation",not as great as seen with pre-irradiation treatment
same,Radiation-induced mortality compared with control animals,"C57 B6/J mice; ""200 Post"": 10 mg/Kg i.p. 15 minutes after 8 Gy gamma radiation",significant delay in radiation-induced mortality
"(E)-2,4,6-Trimethoxystyryl-4-methoxybenzylsulfone [Compound 2]","Activity (radioprotective activity, fold protection: colonies test/control)",HFL-1 cells,+ (radioprotective activity of between 2- and 4.5-fold at the concentrations tested)
(E)-4-Fluorostyryl-4-chlorophenylsulfone [Compound 10],"Activity (radioprotective activity, fold protection: colonies test/control)",HFL-1 cells,+ (radioprotective activity of between 2- and 4.5-fold at the concentrations tested)
(E)-4-Fluorostyryl-4-cyanobenzylsulfone [Compound 6],"Activity (radioprotective activity, fold protection: colonies test/control)",HFL-1 cells,+ (radioprotective activity of between 2- and 4.5-fold at the concentrations tested)
(E)-4-Fluorostyryl-4-trifluoromethylbenzylsulfone [Compound 5],"Activity (radioprotective activity, fold protection: colonies test/control)",HFL-1 cells,+ (radioprotective activity of between 2- and 4.5-fold at the concentrations tested)
(Z)-Styryl-(E)-2-methoxy-4-ethoxystyrylsulfone [Compound 11],"Activity (radioprotective activity, fold protection: colonies test/control)",HFL-1 cells,+ (radioprotective activity of between 2- and 4.5-fold at the concentrations tested)
